According to PMC9224258, “Zinc Coordination Compounds with Benzimidazole Derivatives: Synthesis, Structure, Antimicrobial Activity and Potential Anticancer Application” (International Journal of Molecular Sciences, 2022):
≈ marks a conversion by molar mass, not a printed value. Where two headings read alike, the source gives them in different places.

What was measured:
[1] = system: S. typhimurium ATCC 14028; assay: micro-dilution broth MIC; format: cell-based, Salmonella Typhimurium; settings: Gram-negative
Protocol: (§1) The cytotoxic effect of the compounds was evaluated using glioblastoma (T98G), neuroblastoma (SK-N-AS) and lung adenocarcinoma (A549) cell lines and human normal skin fibroblasts (CCD-1059Sk). T98G and SK-N-AS cells were cultured in DMEM, high glucose; A549 cells were cultured in DMEM/F12; and CCD-1059Sk cells were cultured in MEM. All media were supplemented with 10% FBS, 100 U/mL of penicillin and […] of streptomycin (PenStrep). Cells were incubated at 37 °C in a humidified atmosphere of 5% CO2. Stock solutions were prepared by dissolving the compounds in sterile dimethyl sulfoxide (DMSO) to obtain the concentration of 50 mg/mL. The cells were seeded into 96-well sterile plates (Nunc) at a density of 1 × 10^5 cells/mL. After 24 h of incubation, the medium was removed from each well, and then cells were incubated for the next 24 h with different concentrations of the tested compounds (1–100 µg/mL) in respective medium containing 2% FBS. Cytotoxicity of the compounds was evaluated using the MTT assay, which is based on the conversion of 3-(4,5-dimethylthiazol-2-yl)-2,5-diphenyltetrazolium bromide (MTT) into dark-blue formazan crystals. Briefly, after 24 h incubation of cells with varying concentrations of the tested compounds, all culture media were removed from the plates. Cells were washed with PBS, and then 100 µL of medium containing 10% MTT solution (5 mg/mL) was added to each well. After 3 h incubation, 100 µL (per well) of 10% SDS buffer solution was added to solubilize formazan crystals. After overnight incubation, the absorbance was measured at 570 nm using a microplate reader (Epoch, BioTek Instruments). Experiments were repeated twice, and the measurements in each experiment were run in triplicate. The viability of the investigated cells was expressed as a percentage of the viability of the untreated cells, and the results were transformed into IC50 values (expressed as mean ± SD). […] The complexes were screened for antibacterial and antifungal activities by micro-dilution broth method using Mueller–Hinton broth for growth of bacteria or Mueller–Hinton broth with 2% glucose for growth of fungi. Minimal inhibitory concentrations (MICs) of the tested derivatives were evaluated for the panel of the reference microorganisms from the American Type Culture Collection (ATCC), including Gram-negative bacteria (Escherichia coli ATCC 25922, Salmonella Typhimurium ATCC14028, Klebsiella pneumoniae ATCC 13883, Pseudomonas aeruginosa ATCC 9027, Proteus mirabilis ATCC 12453), Gram-positive bacteria (Staphylococcus aureus ATCC 25923, Staphylococcus epidermidis ATCC 12228, Micrococcus luteus ATCC 10240, Enterococcus faecalis ATCC 29212, Bacillus subtilis ATCC 6633, Bacillus cereus ATCC 10876) and fungi (Candida albicans ATCC 10231, Candida parapsilosis ATCC 22019, C. glabrata ATCC 90030).

E. coli ATCC 25922 = assay: micro-dilution broth MIC; format: cell-based, Escherichia coli
Protocol: as §1

P. mirabilis ATCC 12453 = assay: micro-dilution broth MIC; format: cell-based, Proteus mirabilis
Protocol: as §1

K. pneumoniae ATCC 13883 = assay: micro-dilution broth MIC; format: cell-based, Klebsiella pneumoniae
Protocol: as §1

P. aeruginosa ATCC 9027 = assay: micro-dilution broth MIC; format: cell-based, Pseudomonas aeruginosa
Protocol: as §1

[2] = system: glioblastoma (T98G) cell line; assay: MTT cytotoxicity assay, T98G; format: cell-based; settings: MTT assay after 24 h incubation
Protocol: as §1

[3] = system: neuroblastoma (SK-N-AS) cell line; assay: MTT cytotoxicity assay, SK-N-AS; format: cell-based, human; settings: MTT assay after 24 h incubation
Protocol: as §1

[4] = system: lung adenocarcinoma (A549) cell line; assay: MTT cytotoxicity assay, A549; format: cell-based, human; settings: MTT assay after 24 h incubation
Protocol: as §1

[5] = system: human normal skin fibroblasts (CCD-1059Sk); assay: MTT cytotoxicity assay, normal fibroblasts; format: cell-based; settings: MTT assay after 24 h incubation, normal cells
Protocol: as §1

S. aureus ATCC 25923 = assay: micro-dilution broth MIC; format: cell-based, Staphylococcus aureus; settings: S. aureus ATCC 25923, Gram-positive
Protocol: as §1

[6] = system: S. epidermidis ATCC 12228; assay: micro-dilution broth MIC; format: cell-based, Staphylococcus epidermidis; settings: S. epidermidis ATCC 12228, Gram-positive
Protocol: as §1

M. luteus ATCC 10240 = assay: micro-dilution broth MIC; format: cell-based, Micrococcus luteus; settings: M. luteus ATCC 10240, Gram-positive
Protocol: as §1

E. faecalis ATCC 29212 = assay: micro-dilution broth MIC; format: cell-based, Enterococcus faecalis; settings: E. faecalis ATCC 29212, Gram-positive
Protocol: as §1

B. subtilis ATCC 6633 = assay: micro-dilution broth MIC; format: cell-based, Bacillus subtilis; settings: B. subtilis ATCC 6633, Gram-positive
Protocol: as §1

B. cereus ATCC 10876 = assay: micro-dilution broth MIC; format: cell-based, Bacillus cereus; settings: B. cereus ATCC 10876, Gram-positive
Protocol: as §1

C. glabrata ATCC 2091 = assay: micro-dilution broth MIC; format: cell-based
C. albicans ATCC 102231 = assay: micro-dilution broth MIC; format: cell-based, Candida albicans
Protocol: as §1

[7] = system: C. parapsilosis ATCC 22019; assay: micro-dilution broth MIC; format: cell-based, Candida parapsilosis
Protocol: as §1

[8] = Salmonella enterica, read-out: MIC
[9] = Escherichia coli, ATCC25922, Gram-negative, read-out: MIC
[10] = Proteus mirabilis, ATCC12453, Gram-negative, read-out: MIC
[11] = Klebsiella pneumoniae, ATCC13883, Gram-negative, read-out: MIC
[12] = Pseudomonas aeruginosa, ATCC9027, Gram-negative, read-out: MIC

MIC [1, 8] [µg/mL] | MIC (E. coli ATCC 25922; [9]) [µg/mL] | MIC (P. mirabilis ATCC 12453; [10]) [µg/mL] | MIC (K. pneumoniae ATCC 13883; [11]) [µg/mL] | MIC (P. aeruginosa ATCC 9027; [12]) [µg/mL] | MIC (S. aureus ATCC 25923) [µg/mL] | MIC [6] [µg/mL] | MIC (M. luteus ATCC 10240) [µg/mL] | MIC (E. faecalis ATCC 29212) [µg/mL] | MIC (B. subtilis ATCC 6633) [µg/mL] | MIC (B. cereus ATCC 10876) [µg/mL] | MIC [1] [µg/mL] | MIC (E. coli ATCC 25922; Gram-negative) [µg/mL] | MIC (P. mirabilis ATCC 12453; Gram-negative) [µg/mL] | MIC (K. pneumoniae ATCC 13883; Gram-negative) [µg/mL] | MIC (P. aeruginosa ATCC 9027; Gram-negative) [µg/mL] | Compound | IC50 ± SD, T98G [2] [µg/mL] | IC50 ± SD, SK-N-AS [3] [µg/mL] | IC50 ± SD, A549 [4] [µg/mL] | IC50 ± SD, CCD-1059-Sk [5] [µg/mL] | also measured
0.061 (≈ 0.184 µM) | 0.015 (≈ 0.0453 µM) | 0.03 (≈ 0.0905 µM) | 0.12 (≈ 0.362 µM) | 0.49 (≈ 1.48 µM) |  |  |  |  |  |  |  |  |  |  |  | O=C(O)c1cn(C2CC2)c2cc(N3CCNCC3)c(F)cc2c1=O [Cip, ciprofloxacin, reference compound] |  |  |  |  | 
 |  |  |  |  | 500 | 500 | 250 | 1000 | 500 | 500 | 1000 | 1000 | 1000 | 1000 | >1000 | [Cl][Zn][Cl].[Cl][Zn][Cl].c1cnc2[nH]c(-c3ccncc3)nc2c1.c1cnc2[nH]c(-c3ccncc3)nc2c1 [Complex C2] | 24.29 ± 0.11 | 33.72 ± 0.39 | 34.44 ± 0.75 | 27.27 ± 1.05 | MIC (C. glabrata ATCC 2091; yeast): >1000 µg/mL; MIC (C. albicans ATCC 102231; yeast): 1000 µg/mL; MIC ([7]; yeast): >1000 µg/mL
 |  |  |  |  | 1000 | 1000 | 500 | >1000 | >1000 | >1000 | >1000 | >1000 | >1000 | >1000 | >1000 | [Cl][Zn-2]1([Cl])[n+]2cccc(c2)-c2nc3c(ccc[n+]3[Zn-2]([Cl])([Cl])[n+]3cccc(c3)-c3nc4c(ccc[n+]41)[nH]3)[nH]2 [Complex C3] | 46.54 ± 1.86 | 41.60 ± 1.93 | 41.34 ± 2.17 | 30.84 ± 1.11 | MIC (C. glabrata ATCC 2091; yeast): >1000 µg/mL; MIC (C. albicans ATCC 102231; yeast): >1000 µg/mL; MIC ([7]; yeast): >1000 µg/mL
> 1000 | > 1000 | > 1000 | > 1000 | > 1000 |  |  |  |  |  |  |  |  |  |  |  | c1cc(-c2nc3ccncc3[nH]2)ccn1 [Complex L1] |  |  |  |  | IC50 ([2]; Homo sapiens, T98G, read-out: IC50 ± SD, T98G): 41.2 ± 2.3 µg/mL; IC50 ([3]; Homo sapiens, SK-N-AS, read-out: IC50 ± SD, SK-N-AS): > 100 µg/mL; IC50 ([4]; Homo sapiens, A549, read-out: IC50 ± SD, A549): > 100 µg/mL; IC50 ([5]; Homo sapiens, CCD-1059Sk, read-out: IC50 ± SD, CCD-1059-Sk): > 100 µg/mL; MIC (S. aureus ATCC 25923; Staphylococcus aureus, ATCC25923, read-out: MIC): > 1000 µg/mL; MIC ([6]; Staphylococcus epidermidis, ATCC12228, read-out: MIC): > 1000 µg/mL; MIC (M. luteus ATCC 10240; Micrococcus luteus, ATCC10240, read-out: MIC): 500 µg/mL; MIC (E. faecalis ATCC 29212; Enterococcus faecalis, ATCC29212, read-out: MIC): > 1000 µg/mL; MIC (B. subtilis ATCC 6633; Bacillus subtilis, ATCC6633, read-out: MIC): > 1000 µg/mL; MIC (B. cereus ATCC 10876; Bacillus cereus, ATCC10876, read-out: MIC): > 1000 µg/mL; MIC (C. glabrata ATCC 2091; Nakaseomyces glabratus, ATCC2091, yeast, read-out: MIC): > 1000 µg/mL; MIC (C. albicans ATCC 102231; Candida albicans, ATCC102231, yeast, read-out: MIC): > 1000 µg/mL; MIC ([7]; Lodderomyces parapsilosis, ATCC22019, yeast, read-out: MIC): > 1000 µg/mL
